Results published in patent US20180228853A1 (priority 2015, published 2018).
Read-outs that look alike come from different tables or passages of the source.

Assays:
H1N1 virus particles = assay: Direct binding assay to H1N1 virus particles (DART TOF-MS); set-up: species or system Influenza A (H1N1) virus
Method: Further, direct binding of test biomarkers in HSRx 351 to influenza virus and hemagglutinin were evaluated using the methods described in Roscheck Jr 2009. […] The methodology used is described in Roschek Jr 2009.
Viral Particles—Briefly, H1N1 virus particles were incubated with HSRx 351 or synthetic biomarkers 6 or 7 analog, to allow binding of the compounds within HSRx 351. After incubation, unbound compounds were removed by washing the virus particles three times through a 100 kDa molecular weight cut off membrane filter (Amicon 100 kDa filter, Ultracel PL-100; Millipore Corp. Billerica, Mass.) with phosphate buffered saline (PBS). The virus particles were then collected and fixed in 100% EtOH. The fixed virus particles and the washed fractions containing the unbound chemicals were collected and analyzed directly by DART TOF-MS for comparison.

[1] = test system: H1N1 virus strain A/PR/8/34; assay: microbe, parasite or virus in culture; assay type: cell-based, Influenza A (H1N1) virus; settings: MDCK cells
[2] = test system: influenza or influenza-like illness; assay: Randomized, single-blind clinical study, treatment of influenza or influenza-like illness in combination with Tamiflu; assay type: in vivo, human
Method: Subjects were randomized and placed on a treatment regimen of five days. Group C contained 29 subjects that received 75 mg of Tamiflu® (Oseltamivir Phosphate) in capsule form two times a day for five days. Group D contained 29 subjects that received 75 mg of Tamiflu® (Oseltamivir Phosphate) in capsule form and two 175 mg lozenges of HSRx 351 two times a day for 5 days.
Subjects were also instructed to record any adverse events.
Statistical Analysis/Results—A survival analysis was performed to compare over time the Influenza symptom functions of groups C and D. The time dependent event for which survival and hazard functions were calculated was the final data collection visit for each subject. A Generalized Linear Mixed Model was run to test the hypothesis of fewer adverse events in the combination treatment Group D versus Tamiflu® (Oseltamivir phosphate) only treatment groups C. Parameter estimates such as beta weights and R2 were evaluated along with a P value significance level set at 5%.

[3] = test system: flu and/or flu like symptoms; settings: 10 day regimen, 30 subjects per group
[4] = Influenza A virus, read-out: IC50
[5] = Influenza A virus, read-out: IC50 (μg/mL)
[6] = preliminary statistical results

3-Hydroxyflavonone [Biomarker 7 analog]
binding to H1N1 virus particles (enrichment in the fixed virus samples over the washed fractions) (H1N1 virus particles): bind H1N1 virus particles
IC50 (μg/mL) [1]: 2.8 and μg/mL
IC50 ([1]; read-out: IC50): 8.7 µM

NC12CC3CC(CC(C3)C1)C2 [Amantadine, amantadine]
IC50 [1, 4]: 27 µM
IC50 [1, 5]: 4.1 µg/mL

CCOC(=O)C1=C[C@@H](OC(CC)CC)[C@H](NC(C)=O)[C@@H](N)C1 [Oseltamivir, oseltamivir]
IC50 [1, 4]: 0.32 µM
IC50 [1, 5]: 0.1 µg/mL

CCOC(=O)C1=C[C@@H](OC(CC)CC)[C@H](NC(C)=O)[C@@H](N)C1 [Tamiflu ®, Oseltamivir Phosphate]
Adverse events attributed to study product ([2]; 29 subjects per group): 4 number of subjects
At least one symptom worsened by end of study ([2]; 29 subjects per group): 6 number of subjects
Multiple symptoms worsened by end of study ([2]; 29 subjects per group): 3 number of subjects
Symptoms failed to improve by end of study ([2]; 29 subjects per group): 2 number of subjects
Composite VAS assessment exceeding baseline VAS ([2]; five day treatment, preliminary results): baseline VAS = 126
% Average Reduction, Aches and pains [2, 6]: 64.46%
% Average Reduction, Composite [2, 6]: 63.83%
% Average Reduction, Degree of coughing [2, 6]: 67.74%
% Average Reduction, Fever reduction [2, 6]: 85.38%
% Average Reduction, Frequency of coughing [2, 6]: 50.38%
% Average Reduction, Mucus discharge in the respiratory tract [2, 6]: 54.63%
% Average Reduction, Nasal congestion [2, 6]: 66.35%
% Average Reduction, Quality of sleep [2, 6]: 57.89%
medically related adverse events reported [3]: Five
